BindingDB's records for doi:10.1002/cbic.201600612 (University of Glasgow, 2017)
pKi: −log10 of the molar value.

What was measured:
[1] = target: T1, Coagulation factor XII (Homo sapiens, UniProt P00748); test: Protease Inhibition Assay; conditions: pH 7.4
T1 sequence (P00748 whole entry): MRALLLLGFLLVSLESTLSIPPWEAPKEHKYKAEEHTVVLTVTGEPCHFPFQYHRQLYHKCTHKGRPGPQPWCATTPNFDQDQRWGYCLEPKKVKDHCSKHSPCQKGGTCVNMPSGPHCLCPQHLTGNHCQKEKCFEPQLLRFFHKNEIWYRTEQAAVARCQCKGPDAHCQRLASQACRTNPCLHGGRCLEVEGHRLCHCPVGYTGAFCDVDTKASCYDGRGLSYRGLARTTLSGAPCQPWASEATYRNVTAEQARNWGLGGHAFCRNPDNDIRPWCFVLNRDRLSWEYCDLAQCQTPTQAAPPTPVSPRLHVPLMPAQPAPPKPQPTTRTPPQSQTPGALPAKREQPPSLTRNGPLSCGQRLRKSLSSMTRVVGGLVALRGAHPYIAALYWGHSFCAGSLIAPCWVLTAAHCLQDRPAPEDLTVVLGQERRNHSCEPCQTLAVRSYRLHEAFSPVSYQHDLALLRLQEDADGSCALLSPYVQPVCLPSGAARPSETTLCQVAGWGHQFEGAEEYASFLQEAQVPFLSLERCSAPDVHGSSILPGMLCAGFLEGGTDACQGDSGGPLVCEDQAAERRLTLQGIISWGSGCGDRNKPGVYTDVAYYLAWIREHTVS
Description: (§1) The inhibition of plasma kallikrein and coagulation factor FXII was assessed by incubating the proteases with bicyclic peptide (twofold dilutions) and measuring the residual protease activity with fluorogenic substrates. The inhibition assays were performed in buffer ([…]) containing Tris HCl (pH 7.4, 10 mm), NaCl (150 mm), MgCl2 (10 mm), CaCl2 (1 mm), bovine serum albumin (BSA, 0.1 %, w/v), Triton-X100 (0.01%, v/v), and DMSO (5 %, v/v). Final concentrations of human plasma kallikrein (Innovative Research) and human FXII (Innovative Research)were 0.25 nm and 10 nm, respectively. The fluorogenic substrates Z-Phe-Arg-AMC (plasma kallikrein) and Z-Gly-Gly-Arg-AMC (FXII) were used at a final concentration of […]. Fluorescence intensity was measured with a Tecan Infinite M 200 Pro plate reader (λex= 368 nm, λem=468 nm).

[2] = target: Plasma kallikrein (Human, UniProt P03952); test: Protease Inhibition Assay; conditions: pH 7.4
Description: as §1

Sequence of Plasma kallikrein (P03952 20-390 S143N limits assumed): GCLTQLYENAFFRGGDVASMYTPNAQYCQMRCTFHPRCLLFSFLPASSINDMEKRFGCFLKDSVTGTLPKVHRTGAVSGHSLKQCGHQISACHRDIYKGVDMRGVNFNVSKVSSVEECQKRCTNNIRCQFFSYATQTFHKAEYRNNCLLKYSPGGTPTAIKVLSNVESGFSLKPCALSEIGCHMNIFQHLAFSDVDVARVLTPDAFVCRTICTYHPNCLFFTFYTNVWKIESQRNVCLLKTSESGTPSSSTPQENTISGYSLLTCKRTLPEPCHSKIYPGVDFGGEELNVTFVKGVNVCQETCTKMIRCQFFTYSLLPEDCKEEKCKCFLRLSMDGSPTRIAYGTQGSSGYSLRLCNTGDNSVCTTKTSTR
Sequence of Plasma kallikrein (P03952 391-638 limits assumed): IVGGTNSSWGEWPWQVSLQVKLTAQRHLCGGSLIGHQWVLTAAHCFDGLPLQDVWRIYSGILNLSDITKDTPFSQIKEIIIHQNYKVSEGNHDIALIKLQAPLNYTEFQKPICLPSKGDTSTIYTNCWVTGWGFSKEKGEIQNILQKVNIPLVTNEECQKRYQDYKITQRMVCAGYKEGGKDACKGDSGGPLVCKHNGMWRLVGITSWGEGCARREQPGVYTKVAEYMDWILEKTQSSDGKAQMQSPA

pKi [1] | pKi [2] | SMILES
7.60 | – | CSCCC(=O)N1CN(C(=O)CCSC)CN(C(=O)CCSC)C1 [TATA-FXII618 (14)]
6.47 | 6.27 | CSCC(=O)N1CN(C(=O)CSC)CN(C(=O)CSC)C1 [TATB-FXII618 (15)]
– | 8.89 | CSCc1cc(CSC)cc(CSC)c1 [TBMB-PK15 (10)]
5.91 | 7.70 | CSCc1nc(CSC)nc(CSC)n1 [TBMT-FX618 (16)]
